Patent US20160068571A1, “THERAPEUTIC AGENT FOR CARDIAC TAMPONADE” (Research Institute for Protein Science Co., priority 2013, published 2016)
Where no end group is shown, it is not given here.

Assays:
Assay type in all cases: in vivo, Vietnamese minipigs
[1] = test system: big-endothelin; test: Plasma big-endothelin in porcine cardiac tamponade model; conditions: after cardiac tamponade; AcPepA 4 mg/kg iv; FIG. 4B
Description: (§1) The animals were randomly allocated to either of three experimental groups. Group 1 (n=6) served as the sham^-operated group to which the same time-frame and sampling conditions as in the groups of 2 (n=7) and 3 (n=6) were applied, but without causing cardiac tamponade. Left lateral thoracotomy was performed in all groups. In the groups which developed cardiac tamponade, namely, in the group not treated with AcPepA (herein also referred to as “non-treated group”) and the group treated with AcPepA (herein also referred to as “treated group”), a cannula was fixed into the pericardial cavity. […] After elapse of this period, the fluid was removed from the pericardial cavity and the animals were monitored for 180 minutes post-tamponade. […]
(§2) Plasma concentrations of protein HMGB-1 were determined with a commercially available protein HMGB-1 ELISA kit (Shino-Test Corporation, Kanagawa, Japan). Plasma levels of big-endothelin, a 38 amino acid precursor protein of endothelin-1 (ET-1), were determined with a commercially available kit (Biochemica Hungaria Kft., Budapest, Hungary). Plasma histamine concentrations were determined by commercially available enzyme-linked immunoassay (Quantikine ultrasensitive EIA kit for histamine; Biomedica Hungaria Kft, Budapest, Hungary).

[2] = test system: mucosal microcirculation of the small intestine; test: Intravital videomicroscopy of the intestinal microcirculation in porcine cardiac tamponade model; conditions: end of the post-tamponade phase; AcPepA 4 mg/kg iv; FIG. 3B
Description: as §1
An intravital orthogonal polarization spectral imaging technique (Cytoscan A/R, Cytometrics, Philadelphia, Pa., USA) was used for noninvasive visualization of the mucosal microcirculation of the small intestine. […] A 10× objective lens was placed onto the serosal surface of the […], and microscopic images were recorded with an S-VHS video recorder 1 (Panasonic AG-TL 700, Matsushita Electric Ind. Co. Ltd, Osaka, Japan). Quantitative assessment of the microcirculatory parameters was performed off-line by frame-to-frame analysis of the videotaped images. […]

[3] = test system: histamine; test: Plasma histamine in porcine cardiac tamponade model; conditions: 15 minutes of the post-tamponade phase; AcPepA 4 mg/kg iv; FIG. 4A
Description: as §1, §2

[4] = test system: protein HMGB-1; test: Plasma HMGB-1 in porcine cardiac tamponade model; conditions: after cardiac tamponade; AcPepA 4 mg/kg iv; FIG. 4C
Description: as §1, §2

[5] = test system: whole blood superoxide production; test: Whole blood superoxide production in porcine cardiac tamponade model; conditions: early stage of the post-tamponade phase; AcPepA 4 mg/kg iv; FIG. 5B
Description: The animals were randomly allocated to either of three experimental groups. Group 1 (n=6) served as the sham^-operated group to which the same time-frame and sampling conditions as in the groups of 2 (n=7) and 3 (n=6) were applied, but without causing cardiac tamponade. Left lateral thoracotomy was performed in all groups. In the groups which developed cardiac tamponade, namely, in the group not treated with AcPepA (herein also referred to as “non-treated group”) and the group treated with AcPepA (herein also referred to as “treated group”), a cannula was fixed into the pericardial cavity. A pericardial tamponade was induced for 60 minutes by the intrapericardial administration of colloid solution, while the mean artery pressure was kept in the interval of 40 to 45 mmHg. After elapse of this period, the fluid was removed from the pericardial cavity and the animals were monitored for 180 minutes post-tamponade. […]
During the measurements, 10 μL whole blood was added to 1 mL Hank's solution (PAA Cell Culture Company) and the mixture was kept at 37° C. until assay. The chemiluminometric response was measured with a Lumat LB9507 luminometer (Berthold, Germany) during a 30 minute period after addition of 100 μL of lucigenin.

[6] = test system: myeloperoxidase; test: Small intestinal myeloperoxidase activity in porcine cardiac tamponade model; conditions: end of the experiment; AcPepA 4 mg/kg iv; FIG. 5A
Description: as §1
The activity of myeloperoxidase, a marker of activation of polymorphonuclear leukocyte, was measured by using ileal biopsy samples according to the method of Kuebler et al. (for review see Kuebler W M, Abels C, Schuerer L, et al: Measurement of neutrophil content in brain and lung tissue by a modified myeloperoxidase assay. Int J Microcirc Clin Exp 1996; 16:89-97). […] Levels of myeloperoxidase were calculated via a calibration curve prepared with an myeloperoxidase standard (Sigma-Aldrich GmbH, Germany). […] Myeloperoxidase activities of such samples were measured as described above, and such data were referred to the protein content.

[7] = test system: acute porcine model of experimental cardiac tamponade; test: Macro-hemodynamic measurements in acute porcine model of experimental cardiac tamponade; conditions: for central venous pressure: FIG. 2A; for global end-diastolic volume index: FIG. 2B; for superior mesenteric artery blood flow: FIG. 3A; for heart rate: FIG. 2C
Description: Inbred Vietnamese minipigs of both sexes (n=19, weighing 24±3 kg) were fasted for twelve (12) hours preoperatively, but received water ad libitum. Anesthesia was induced with a mixture of ketamine (20 mg/kg) and xylazine (2 mg/kg) im and maintained with a continuous infusion of propofol (50 μL/min/kg iv; 6 mg/kg/hr). After endotracheal intubation, the animals were mechanically ventilated with the tidal volume set at 9±2 mL/kg, and the respiratory rate was adjusted to maintain the end-tidal pressure of CO2 and PaCO2 in the range of 35 to 45 mmHg. Positive end-expiratory pressure was not applied during the period of cardiac tamponade.
The animals were placed in a supine position on an electric heating pad for maintenance of body temperature between 36 and 37° C., and received an infusion of Ringer's lactate at a rate of 10 mL/kg/h during the experiment. The right femoral artery and jugular vein were cannulated for the measurement of mean arterial pressure (“MAP”) and cardiac output (“CO”) by thermodilution (PICCO catheters, PULSION Medical Systems, Germany), and for fluid or drug administration, respectively. […] An ultrasonic flow probe (Transonic Systems Inc., Ithaca, N.Y., U.S.A.) was placed around the exposed SMA to measure the mesenteric blood flow. In all protocols, the animals were monitored continuously, arterial blood gases were regularly checked (Cobas b121, Roche, Austria), and a period of 30 minutes was allowed for recovery from surgery.
The animals were randomly allocated to either of three experimental groups. Group 1 (n=6) served as the sham^-operated group to which the same time-frame and sampling conditions as in the groups of 2 (n=7) and 3 (n=6) were applied, but without causing cardiac tamponade. Left lateral thoracotomy was performed in all groups. In the groups which developed cardiac tamponade, namely, in the group not treated with AcPepA (herein also referred to as “non-treated group”) and the group treated with AcPepA (herein also referred to as “treated group”), a cannula was fixed into the pericardial cavity. A pericardial tamponade was induced for 60 minutes by the intrapericardial administration of colloid solution, while the mean artery pressure was kept in the interval of 40 to 45 mmHg. After elapse of this period, the fluid was removed from the pericardial cavity and the animals were monitored for 180 minutes post-tamponade. Group 3 (the treated group) was treated with AcPepA (a single administration of 4 mg/kg in 5 mL saline iv into the jugular vein in a 5-minute infusion) after 45 minutes of cardiac tamponade. The beginning of tamponade is denoting 0 minute. Vehicle (saline) administration was applied in the groups of 1 and 2 by the same protocol.
Central venous pressure (“CVP”) and blood flow signals were continuously monitored and automatically registered with a computerized data-acquisition system (SPELL Haemosys; Experimetria Ltd., Budapest, Hungary). Mean arterial pressure, cardiac output and heart rate were measured with the PICCO Plus monitoring system (PULSION Medical Systems, Germany) and the global end-diastolic volume index (“GEDI”) was calculated with the PICCO system. Incidentally, central venous pressure was measured in each animal to exclude the influence of these factors, in parallel with the standard ventilation and fluid replacement protocols

[8] = after relief of cardiac tamponade, AcPepA 4 mg/kg iv
[9] = during the period of cardiac tamponade, treated group vs sham-operated group

AcPepA: 17 amino acid peptide (Ala Ser Gly Ala Pro Ala Pro Gly Pro Ala Gly Pro Leu Arg Pro Met Phe), N-terminal alanine acetylated; C5A antagonist (Ac-ASGAPAPGPAGPLRPMF)
plasma big-endothelin levels [1]: low values as compared with in the non-treated group and also showed the same values as in the sham-operated group
average red blood cell verocity [2]: increased significantly from the baseline level and also as compared with in the non-treated group
histamine levels in blood plasma [3]: decreased significantly in the treated group as compared with in the non-treated group and showed the same values as in the sham-operated group
plasma levels of protein HMGB-1 [4]: significant low values as compared with in the non-treated group and also showed the same values as in the sham-operated group
whole blood superoxide production [5]: low as compared with in the non-treated group and also showed the same values as in the sham-operated group
myeloperoxidase activity in small intestine tissue samples (polymorphonuclear leukocyte accumulation) [6]: significant low values in the treated group as compared with in the non-treated group and also showed the same values as in the sham-operated group
central venous pressure [7, 8]: significant high values as compared with in the non-treated group and also showed the same values as in the sham-operated group
global end-diastolic volume index [7, 8]: significant high values as compared with in the non-treated group and also showed the same values as in the sham-operated group
mean arterial pressure ([7]; after relief of tamponade, AcPepA 4 mg/kg iv single dose after 45 minutes of tamponade, FIG. 1A): significantly high values as compared with in the non-treated group and also showed the same values as in the sham-operated group
cardiac output ([7]; after relief of tamponade, AcPepA 4 mg/kg iv, FIG. 1B): not affected
superior mesenteric artery blood flow ([7]; after relief of tamponade, AcPepA 4 mg/kg iv): increased significantly after relief of tamponade as compared with in the sham-operated group
decline in cardiac output ([7]; during 60 minutes of cardiac tamponade, treated group (AcPepA 4 mg/kg iv after 45 minutes of tamponade), vs sham-operated group, FIG. 1B): 65%
heart rate ([7]; during cardiac tamponade, treated group vs sham-operated group): significant increase in heart rate
central venous pressure [7, 9]: significant increase of central venous pressure
global end-diastolic volume index [7, 9]: significant decrease of the global end-diastolic volume index
superior mesenteric artery blood flow [7, 9]: significant decrease in the superior mesenteric artery blood flow
heart rate ([7]; post-tamponade period, AcPepA 4 mg/kg iv): significant decrease in the post-tamponade period as compared with in the non-treated group
